In patent publication US9067898B1, “Isothiazole derivatives as GPR120 agonists for the treatment of type II diabetes” (Janssen Pharmaceutica NV, priority 2014, dated 2015):

Columns and labels:
Human GPR120 short form = target: T1, Human GPR120 short form (Homo sapiens, UniProt Q5NUL3); experiment: Human GPR120 calcium flux assay (FLIPR), Procedure Calcium A; type: cell-based; conditions: HEK-293 cells expressing human GPR120 short form, 2500 cells/well; read-out: GPR120 Ca2+ Assay A EC50
T1 construct: expressed in transfected cells
T1 sequence (Q5NUL3 1-361): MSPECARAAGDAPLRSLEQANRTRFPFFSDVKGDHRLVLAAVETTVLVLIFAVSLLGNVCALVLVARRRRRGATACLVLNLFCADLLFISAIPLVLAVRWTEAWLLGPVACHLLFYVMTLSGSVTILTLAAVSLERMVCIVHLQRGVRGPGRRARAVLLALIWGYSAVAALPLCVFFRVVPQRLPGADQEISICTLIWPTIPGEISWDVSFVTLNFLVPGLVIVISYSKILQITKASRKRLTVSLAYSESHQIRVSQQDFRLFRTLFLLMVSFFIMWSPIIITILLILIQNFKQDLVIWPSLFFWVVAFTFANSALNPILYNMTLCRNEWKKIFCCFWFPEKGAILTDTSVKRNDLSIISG
From the text: This in vitro assay serves to assess test compound agonist activity against the short splice variant (SVS with Accession number NM_001195755.1 confirmed by sequencing data) of the GPR120 receptor. The Human Short splice variant #2 (NM_001195755.1) is missing an in-frame coding exon compared to variant 1 (the Human Long splice variant NM_181745.3), resulting in a shorter isoform (GPR120-S) lacking a 16 aa protein segment compared to isoform GPR120-L. The assay platform utilizes HEK-293 cells stably transfected to express the Human GPR120 short form. These cells are first loaded with the Ca^+2 sensitive dye, Fluo-4 NW. Upon stimulation, intracellular released Ca^+2 can bind to the dye and alter its fluorescence intensity. This increase in fluorescence signal, and thus the flux in intracellular [Ca^2+], is detected and quantitated by fluorescence imaging using a FLIPR reader. The effect of the agonist is measured as a function of concentration and used to calculate an EC50 based upon a response curve.
In this procedure 2500 cells/well were employed.
A Human GPR120 clone (Genbank accession number NM_001195755.1) was placed into the pcDNA3.1 mammalian expression vector carrying the neomycin resistance gene. A stable mammalian cell was generated by placing the above clone into a HEK293 background. Clonal cells responding to long chain fatty acids had expression levels of GPR120 confirmed by RT-qPCR. Human HEK-GPR120 cells were cultured in Dulbecco's Modified Eagle's Medium (DMEM)/F12 medium supplemented with 10% fetal bovine serum (FBS), 1% L-Glutamine and 1% penicillin/streptomycin and 0.5 mg/ml G-418. Cells were split 2 times a week to keep the cells in the log-phase growth.
In preparation for the assay, HEK cells stably transfected with Human GPR120 (2.5K cells per well in 25 uL growth medium) were seeded into 384-well plates and then incubated overnight (37° C., 5% CO2). The next day, the media was changed to 20 μL assay buffer and the cell starved for 1 h at 37° C. The dye loading solution (2× dye) was prepared using 10 mL assay buffer, 100 μL of 250 mM probenecid, 1 bottle of Component A, and 20 μl of dye in DMSO. Twenty μL of the 2× dye loading buffer was then added to each well. The plates were incubated at 37° C. for 30 min, then at room temperature for an additional 15 minutes, before performing the assay on FLIPR. Test compounds were prepared in assay buffer (2 uL of cpd+198 uL assay buffer, final DMSO in assay plate is 0.2%) at the desired concentration, more particularly at 100, 50, 25, 12.5, 6.25, 3.125, 1.562, 0.781, 0.391, 0.195, 0.098, 0.049, 0.024 and 0.012 μM.
The assay was performed on a FLIPR plate reader using the following parameters. Baseline was read for 10 seconds at 1 sec intervals. The program was set to transfer 10 μL of ligand from compound plate to cell plate after baseline reading. Aspiration was executed at: 10 μL/sec speed, 4.6 μL height; Dispensing was executed at: 30 μL/sec speed, 45 μL height. After compound addition, each well was read for 300 sec, with measurements collected at 1 sec intervals.
The kinetic data from the FLIPR was based upon a 5 minute window for data collection. The fluorescence of each sample well was used for individual calculations of a normalized RFU value, which was defined as maximum response minus the minimum response. The normalized fluorescence reading (RFU) was calculated as follows: RFU=Fmax−Fmin The data were fitted to a sigmoidal dose-response curve with a variable Hill slope (<2) using nonlinear regression with GraphPad Prism 5.0 to calculate the EC50 values. The Fitting Equation was: Y=Bottom+(Top−Bottom)/(1+10^((Log EC50−X)*HillSlope)), where X is the log of the concentration and Y is the response.

[1] = target: T2, long form of human GPR120 (Homo sapiens, UniProt Q5NUL3); experiment: Human GPR120 DiscoveRx PathHunter Beta-Arrestin assay, Procedure β-arrestin A; type: cell-based; conditions: PathHunter CHO-K1 GPR120 β-Arrestin cell line, 3000 cells per well, read-out: hGPR120 β-arrestin A EC50
T2 construct: host or cells: PathHunter CHO-K1 GPR120 β-Arrestin Cell Line
From the text: The binding of an agonist (medium/long chain fatty acids or small molecule agonists) to the G-protein-coupled receptor GPR120 activates phospholipase C, leading to release of intracellular Ca^+2 through the generation of inositol 1,4,5-trisphosphate (InsP3 or IP3). GPR120 activation can also trigger intracellular signaling via recruitment of Beta-Arrestin. In the present method, agonist-induced activation of the human GPR120 receptor is monitored through the use of PathHunter CHO-K1 GPR120 Beta-Arrestin Cell Line engineered by DiscoveRx, as detailed below. The cell lines are designed to co-express both the ProLink/Enzyme Donor (PK)-tagged GPCR and the Enzyme […] (EA)-tagged Beta-Arrestin fusion proteins. Upon GPR120 receptor stimulation/activation, the EA-tagged Beta-Arrestin portion is translocated to the tagged receptor, where the two enzyme fragments are brought within close proximity. Under these conditions, these fragments can interact and form an active Beta-gal enzyme complex through Enzyme Fragment Complementation (EFC). This active Beta-gal complex can enzymatically hydrolyse the substrate to produce a detectable light signal; therefore, activation as a function of agonist concentration can be expressed as an EC50 value to determine relative compound activities. This in vitro assay therefore serves to assess compound agonist activity of the GPR120. Procedure β-Arrestin A: In Procedure β-arrestin A, the cell used were PathHunter CHO-K1 GPR120 β-Arrestin Cell Line, expressing the long form of human GPR120 (Genbank accession number NM 181745), with 3000 cells per well. Procedure β-Arrestin B: In Procedure 3-arrestin B the cells used were PathHunter CHO-K1 GPR120S β-Arrestin Cell Line, expressing the short form of the GPR120 receptor (Accession #NM_181745), with 5000 cells/well. Assay Procedure:
The selected CHO-K1 GPR120 β-Arrestin cells were cultured in Ham's F12 media supplemented with 10% fetal bovine serum (FBS), 1% Glutamine, lx p/s, 800 μg/mL G418 and 300 μg/mL Hygromycin B (for selection). Cell stocks were maintained and grown in a sub-confluent state using standard cell culture procedures. The day before the experiment, the cells were harvested with non-enzymatic cell dissociation buffer and re-suspended in complete growth media at the desired concentration. A Corning 384-plate was then seeded with the proper number of cells in a volume of 25 μL, per well. The seeded plates were incubated overnight at 37° C.
On the day of the experiment, the Assay Buffer containing (a) HBSS with Ca^++ and Mg^++, (b) 20 mM HEPES, and (c) 0.1% BSA stabilizer (pH 7.4) was prepared. The growth medium was gently removed from the cell plates and 20 μL of Assay Buffer added to each well. The plate was then incubated at 37° C. for 60 min. Test compounds were serially diluted in Assay Buffer to desired concentrations (more particularly to one or more of the following μM concentrations: 25, 12.5, 6.25, 3.125, 1.5625, 0.78125, 0.390625, 0.1953125, 0.09765625, 0.048828125, 0.024414063, 0.012207031). Five μL of compound dilution was then added to each well and the plate incubated at 37° C. for 90 min. The detection reagents were prepared according to the manufacture's instruction. Twelve μL of the detection reagents were added to each well and the plate incubated at room temperature for 60 min.
The plates were read on an EnVision instrument, using Protocol name: Luminescence, Plate type: 384 Costar, Measurement height: 3 mm, Measurement time: 1 s, Aperture: 384 Plate aperture. The % activity relative to the positive control was calculated using the following equation:
The % Activity values were plotted versus the concentration of test compound and fitted to a sigmoidal dose-response curve with a Hill slope=1 (fixed value) using nonlinear regression with GraphPad Prism 5.0 to calculate the EC50 values. […]

T2 sequence (Q5NUL3 1-377 isoform Q5NUL3-1): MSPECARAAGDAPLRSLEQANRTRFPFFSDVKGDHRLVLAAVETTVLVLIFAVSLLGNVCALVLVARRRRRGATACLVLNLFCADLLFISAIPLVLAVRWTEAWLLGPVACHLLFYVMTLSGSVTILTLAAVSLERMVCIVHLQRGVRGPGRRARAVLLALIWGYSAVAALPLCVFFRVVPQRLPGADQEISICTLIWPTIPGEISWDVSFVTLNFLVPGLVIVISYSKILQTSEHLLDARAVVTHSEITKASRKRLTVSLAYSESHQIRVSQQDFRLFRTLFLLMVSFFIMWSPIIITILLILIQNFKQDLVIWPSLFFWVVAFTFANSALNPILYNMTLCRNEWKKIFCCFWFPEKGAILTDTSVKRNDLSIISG
T2 sequence (P32121 whole entry partner): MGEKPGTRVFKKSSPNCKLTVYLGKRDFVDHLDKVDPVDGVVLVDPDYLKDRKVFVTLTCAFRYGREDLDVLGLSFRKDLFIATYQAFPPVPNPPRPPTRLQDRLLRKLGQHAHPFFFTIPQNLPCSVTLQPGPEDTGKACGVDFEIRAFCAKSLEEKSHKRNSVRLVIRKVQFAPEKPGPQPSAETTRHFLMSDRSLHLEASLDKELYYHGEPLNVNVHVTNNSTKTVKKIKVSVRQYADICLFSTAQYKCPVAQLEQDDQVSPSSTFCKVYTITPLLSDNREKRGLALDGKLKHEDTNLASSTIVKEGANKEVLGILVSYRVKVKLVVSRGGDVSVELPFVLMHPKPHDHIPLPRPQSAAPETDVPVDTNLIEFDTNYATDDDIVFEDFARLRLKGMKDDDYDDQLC

Molecule	EC50 (Human GPR120 short form) [nM]	EC50 [1] [nM]
3-(4-((3-chloro-5-(4-ethylphenyl)isothiazol-4-yl)methoxy)-2,3,5-trifluorophenyl)propan-1-ol [Cpd 140]	200	116
3-(4-((4-(4-ethylphenyl)thiophen-3-yl)methoxy)-3,5-difluorophenyl)propanoic acid [Cpd 53]	690	210
3-(4-[[2-(4-chlorophenyl)-5-methyl-4-(trifluoromethyl)thiophen-3-yl]methoxy]-3,5-difluorophenyl)propanoic acid [Cpd 40]	129	650
CCc1ccc(-c2ccsc2COc2ccc(CCCO)c(F)c2F)cc1 [Cpd 4, 3-(4-[[3-(4-ethylphenyl)thiophen-2-yl]methoxy]-2,3-difluorophenyl)propan-1-ol]	59	261
CCc1ccc(-c2cc(Cl)sc2COc2ccc(CCC(=O)O)c(C)c2C)cc1 [Cpd 5, 3-(4-[[5-chloro-3-(4-ethylphenyl)thiophen-2-yl]methoxy]-2,3-dimethylphenyl)propanoic acid]	61	191
CCc1ccc(-c2cc(Cl)sc2COc2c(F)cc(CCC(=O)O)cc2F)cc1 [Cpd 8, 3-(4-((5-chloro-3-(4-ethylphenyl)thiophen-2-yl)methoxy)-3,5-difluorophenyl)propanoic acid]	114	167
CCc1ccc(-c2cc(Cl)sc2COc2c(F)cc(CCCO)cc2F)cc1 [Cpd 9, 3-(4-[[5-chloro-3-(4-ethylphenyl)thiophen-2-yl]methoxy]-3,5-difluorophenyl)propan-1-ol]	117	203
CCc1ccc(-c2cc(Cl)sc2COc2ccc(CCC(=O)O)c(F)c2F)cc1 [Cpd 11, 3-(4-[[5-chloro-3-(4-ethylphenyl)thiophen-2-yl]methoxy]-2,3-difluorophenyl)propanoic acid]	126	222
CCc1ccc(-c2cc(F)sc2COc2ccc(CCC(=O)O)c(F)c2F)cc1 [Cpd 12, 3-(4-[[3-(4-ethylphenyl)-5-fluorothiophen-2-yl]methoxy]-2,3-difluorophenyl)propanoic acid]	135	125
CCc1ccc(-c2cc(C)sc2COc2ccc(CCC(=O)O)c(C)c2C)cc1 [Cpd 13, 3-(4-((3-(4-ethylphenyl)-5-methylthiophen-2-yl)methoxy)-2,3-dimethylphenyl)propanoic acid]	163	498
O=C(O)CCc1ccc(OCc2sc(Cl)cc2-c2ccc(Cl)cc2)c(F)c1F [Cpd 28, 3-(4-[[5-chloro-3-(4-chlorophenyl)thiophen-2-yl]methoxy]-2,3-difluorophenyl)propanoic acid]	–	186
OCCCc1ccc(OCc2sc(Cl)cc2-c2ccc(Cl)cc2)c(F)c1F [Cpd 29, 3-(4-[[5-chloro-3-(4-chlorophenyl)thiophen-2-yl]methoxy]-2,3-difluorophenyl)propan-1-ol]	–	243
Cc1ccc(-c2snc(Cl)c2COc2c(F)cc(CCC(=O)O)cc2F)c(F)c1 [Cpd 77, 3-(4-[[3-chloro-5-(2-fluoro-4-methylphenyl)-1,2-thiazol-4-yl]methoxy]-3,5-difluorophenyl)propanoic acid]	–	191
COc1ccc(-c2nsc(C(F)(F)F)c2COc2c(F)cc(CCCO)cc2F)cc1 [Cpd 234, 3-(3,5-difluoro-4-[[3-(4-methoxyphenyl)-5-(trifluoromethyl)-1,2-thiazol-4-yl]methoxy]phenyl)propan-1-ol]	–	145
Cc1cc(CCC(=O)O)ccc1OCc1c(-c2ccc(Cl)cc2)nsc1C(F)(F)F [Cpd 235, 3-(4-[[3-(4-chlorophenyl)-5-(trifluoromethyl)-1,2-thiazol-4-yl]methoxy]-3-methylphenyl)propanoic acid]	–	302
CCc1ccc(-c2nsc(C(F)(F)F)c2COc2c(C)cc(CCC(=O)O)cc2C)cc1 [Cpd 239, 3-(4-((3-(4-ethylphenyl)-5-(trifluoromethyl)isothiazol-4-yl)methoxy)-3,5-dimethylphenyl)propanoic acid]	–	203
Cc1c(/C=C/C(=O)O)ccc(OCc2c(-c3ccc(Cl)cc3)nsc2C(F)(F)F)c1C [Cpd 244, (E)-3-(4-((3-(4-chlorophenyl)-5-(trifluoromethyl)isothiazol-4-yl)methoxy)-2,3-dimethylphenyl)acrylic acid]	> 5000	–
